Test results reported in PMC3033200 (Angewandte Chemie (International ed. in English), 2010).
“Also recorded” adds a separate entry of the source. One block for each substance: values may come before it.

Columns and labels:
ΔF508-CFTR [1] = test: Ussing chamber chloride efflux; type: cell-based, human
CAL PDZ domain (CALP) = test: NMR HSQC binding-site mapping on 15N-CALP; settings: 15N-CALP HSQC
CFBE-ΔF cells = test: peptide uptake by fluorescence microscopy; settings: BioPORTER delivery, fluorescence microscopy (Figure S1)
ΔF508-CFTR [2] = test: Ussing chamber chloride efflux, residual ΔISC after CHX; type: cell-based, human
ΔF508-CFTR [3] = type: cell-based, human; settings: surface biotinylation and Western blotting; p = 0.35, n = 14

Substance: AALKEETEEEVQDTRL [CFTR16]
increase in ΔISC (ΔF508-CFTR [1]; absence of CHX, relative to the scrambled control (Figure 5)): did not significantly increase

mode of binding / binding site on CALP (CAL PDZ domain (CALP); 800 μM iCAL36, normalized chemical shift perturbation Δ ≥ 0.15): competitive inhibitor
Substance: ANSRWPTSII [iCAL36]
effect on ΔF508-CFTR biogenesis/maturation (ΔF508-CFTR [1]; comparison of ΔISC increase in absence (26%) and presence (25%) of CHX): does not strongly affect biogenesis
additional contacts compared to CFTR8 (CAL PDZ domain (CALP); compared to the CFTR8 octamer, listed as iCAL36_10): extends beyond that of CFTR8; also recorded: makes additional contacts at the distal end of the peptide-binding groove

Substance: F*-ANSRWPTSII [F*-iCAL36]
peptide uptake (CFBE-ΔF cells): confirmed
residual ΔISC increase vs control monolayers (ΔF508-CFTR [2]; CHX 2 h, relative to control (F*-SCR) monolayers, p = 0.0005): 25%
increase in apical ΔF508-CFTR (significance, words) (ΔF508-CFTR [3]): not statistically significant

peptide uptake (CFBE-ΔF cells): confirmed
Substance: F*-SPTINSAIWR [F*-SCR, reference compound]
shift in chloride efflux (ΔISC) compared to untreated cells (ΔF508-CFTR [1]; CFBE-ΔF polarized monolayers, 37 °C, peptide/BioPORTER (500 μM), compared to untreated cells): ≤ 4%
residual ΔISC, % of baseline (ΔF508-CFTR [2]; 2 h CHX exposure, % of 0 h starting value, n = 9): 60%
